The record followed here is patent US8404724B2, “Unit dose formulations and methods of treating thrombosis with an oral factor Xa inhibitor” (Millennium Pharmaceuticals, Inc., priority 2006, dated 2013).

The test system of data set [1] is vessel patency in FeCl3 induced thrombosis in rat carotid artery. The data set can be described thus: Rat carotid artery FeCl3 induced thrombosis model. The class given is in vivo. As to the method: Rat FeCl3 model adapted from Kurz, K. D. et al. Thromb. Res. 1990; 60(4):269-280, incorporated by reference in its entirety herein, utilizing the left carotid artery. A stenosis of the artery was applied with a silk ligature reducing blood flow by 50% with a light crush injury followed by application of 50% FeCl3 for the duration of the experiment. Blood flow was monitored via pulsed Doppler flow probe and recorded for 90 minutes post-FeCl3 application. Enoxaparin and Betrixaban administered IV. Clopidogrel administered orally Q.D. for 3 days.

The test system of data set [2] is PT and aPTT. The data set can be described thus: Ex vivo PT and aPTT in rat carotid model. To be noted: 3 mg/kg/day. How it is done: The third model investigated inhibition of ^111In labeled platelet deposition on dacron grafts and expansion chambers placed in femoral arteriovenous shunts in baboons. In all models tested, betrixaban and enoxaparin were administered as IV infusions and clopidogrel was dosed orally for three days. Ex vivo PT and aPTT were measured in all models.

For data set [3], the system named is TF-induced plasma thrombin generation. The data set can be described thus: TF-induced plasma thrombin generation assay (plasma pool). The class given is biochemical, human. To be noted: for pIC50: read-out: IC50. The source says:
For the in vitro studies, a plasma pool was generated from blood collected via venipuncture into 3.2% (1:9 v/v) tri-sodium citrate from a minimum of ten donors. The specific thrombin substrate used was Z-GGR-AMC (Bachem). Tissue factor (Innovin, “TF”) was purchased from Dade Behring. Rabbit anti-human TF IgG and purified recombinant human TF were from American Diagnostica. COATEST LMW Heparin/Heparin Kits were from Chomogenix. Source of anticoagulants tested were as follows: enoxaparin sodium (Aventis Pharmaceuticals), fondaparinux sodium (Glaxo Smith Kline), bivalirudin (The Medicines Company), fXa inhibitor C921-78 (Betz, A. et al. Biochem., 1999; 38-14582-14591); rivaroxaban and razaxaban.
Thrombin generation in the plasma pool in the absence and presence of various anticoagulants and in warfarin treated patients was initiated by the addition of Innovin and calcium. Thrombin generation was measured by the continuous signal generated by cleavage of thrombin substrate over a 10 min period in a FlexStation fluorescence reader ([…]). The fluorescence signal (Max-Min relative fluorescence units) is presented as units (RFU) or arbitrary unites (AU) of thrombin generation and anti-fXa units were measured by Coatest. Quantitation of TF concentration in Innovin was carried out by immunoblotting with rabbit anti-human TF IgG, followed by densitometry and comparison with purified human TF (residues 1-263, expressed in baculovirus).

Data set [4] is described as follows: Plasma concentration of betrixaban in baboon model. The class given is in vivo.
The subject of data set [5] is thrombin generation, anti-Xa activity, aPTT, PT, INR in patient plasma. The data set can be described thus: Randomized trial after total knee replacement: pharmacodynamic measurements. The class given is in vivo, human. As to the method:
Blood samples for assessment of plasma drug concentrations and pharmacodynamic measurements were obtained at screening, 1 to 4 hours after administration of the morning dose of study medication on Day 2, on the day of discharge and prior to the mandatory venogram on Day 10 to 14. Plasma samples were analyzed for betrixaban using high-performance-liquid-chromatography with tandem mass spectrometry. The method was validated for a range from 0.100-50.0 ng/mL, based on the analysis of 0.2 mL plasma. Quantitation was performed using a calibration standard curve generated from weighted least square regression analysis. […] The anti-Xa unit assay was adapted from the Coatest LMW heparin kit (Diapharma) and modified to a 96-well plate format. In this assay, standards and patient samples were assayed in duplicate and the limit of quantification was 0.05 anti-Xa U/mL. Thrombin generation was initiated by the addition of tissue factor (Innovin, Dade Behring) and calcium to citrate anticoagulated patient plasma (0.1 mL). Formation of thrombin was measured by cleavage of a specific thrombin substrate (Z-GGR-AMC, Bachem) over a 10 minute period. Relative fluorescence units were measured in a FlexStation fluorescence reader (Molecular Devices) and used for quantitation of thrombin generation. All patient plasma samples were assayed in triplicate and inhibition of thrombin generation reported as change from baseline relative fluorescent unit for each individual.

For data set [6], the system named is thrombus growth (platelet deposition, fibrin deposition) in arteriovenous shunt. The data set can be described thus: Thrombogenic device in arteriovenous shunt in baboons. The class given is in vivo, baboon.
Data set [7] concerns tissue factor initiated thrombin generation in human whole blood. The data set can be described thus: Whole blood prothrombinase / tissue factor initiated thrombin generation assay. The class given is biochemical. How it is done:
Thrombin activity was quantitated by cleavage of the fluorogenic substrate. […] Relative fluorescence unit (RFU) measurements of representative donor is shown.
Thrombin generation assays were performed as described in Example 4, with compounds added ex vivo to human whole blood. PT and aPTT values in various species determined from compounds added to platelet poor plasma. Samples were run on an ACL 3000plus (Coulter), PT determined using Dade® Thromboplastin C plus and aPTT determined using Dade® Actin® FS Activated PTT reagent.

The subject of data set [8] is thrombus mass in rabbit abdominal vena cava. The data set can be described thus: Rabbit vena cava thrombosis model (clot accretion on cotton threads). The class given is in vivo. To be noted: 3 mg/kg IV infusion. As to the method: Multiple doses of betrixaban were evaluated in three animal models. […] Efficacy in rabbit venous thrombosis was determined by measuring the thrombus accretion on cotton threads placed in the vena cava by means of a catheter inserted into the left femoral vein, as described by Hollenbach et al., Thromb. Haemost. 1994; 71:357-362, incorporated by reference in its entirety herein. The decrease in thrombus weight following a two hour infusion of compound was expressed relative to vehicle control. See also Sinha, et al., Eur. J. Pharmacology. 395:51-59 (2000), incorporated by reference in its entirety herein.

The test system of data set [9] is venous thromboembolism. The data set can be described thus: Randomized trial after total knee replacement: VTE incidence. Particulars: for VTE % (95% CI): 10 to 14 days after TKR. The class given is in vivo, human. How it is done: The primary efficacy endpoint was the incidence of venous thromboembolism (“VTE”) (symptomatic or asymptomatic deep vein thrombosis on a mandatory unilateral venogram or symptomatic pulmonary embolism) through Day 10 to 14. Safety endpoints included the incidence of major and clinically significant nonmajor bleeds through the day after venography. All efficacy and bleeding endpoints were adjudicated by a blinded, independent central adjudication committee. […] Enoxaparin was administered subcutaneously 12 to 24 hours after surgery and every 12 hours (q 12 h) thereafter. Treatment continued for 10 to 14 days unless a protocol-specified stopping criterion had been met. After discharge from the hospital, patients self-administered study medication. The last dose of study medication was administered the morning of the scheduled mandatory venography of the operated leg (Day 10 to 14).

For data set [10], the system named is clotting parameters (ACT, PT, aPTT, anti fXa units, plasma thrombin generation). The data set can be described thus: Ex vivo coagulation measurements and bleeding time in baboon model.
The subject of data set [11] is prothrombin time in rabbit plasma. The data set can be described thus: In vitro extension of PT in rabbit plasma.
Data set [12] concerns prothrombin time in baboon plasma. The data set can be described thus: In vitro extension of PT in baboon plasma.
The test system of data set [13] is prothrombin time in human plasma. The data set can be described thus: In vitro extension of PT in human plasma.
Data set [14] deals with thrombin, factor VIIa, factor IXa, activated protein C, tissue plasminogen activator, plasmin and trypsin. The data set can be described thus: Amidolytic assays for related proteases (specificity). Particulars: relative to human fXa. The class given is biochemical.
A short description of data set [15]: Randomized trial after total knee replacement: bleeding and tolerability. Also noted: species or system human. To be noted: in vivo. An excerpt: The primary efficacy endpoint was the incidence of venous thromboembolism (“VTE”) (symptomatic or asymptomatic deep vein thrombosis on a mandatory unilateral venogram or symptomatic pulmonary embolism) through Day 10 to 14. Safety endpoints included the incidence of major and clinically significant nonmajor bleeds through the day after venography. All efficacy and bleeding endpoints were adjudicated by a blinded, independent central adjudication committee.

Data set [16] relates to prothrombin time in rat plasma. The data set can be described thus: In vitro extension of PT in rat plasma.
A short description of data set [17]: Salt selection properties. The class given is physicochemical.
Where [18] appears, read: Baboon Arteriovenous, 0.49 mg/kg.

The term pIC50 denotes the IC50 on a negative log10 scale, so that one unit is a factor of ten. The IC50 is the concentration at which inhibition is half-maximal. Read a low IC50 as inhibition by little substance.

pIC50: −log10 of the molar value. Structures can show the parent of a compound that is named as a salt. Where two headings read alike, the source gives them in different places.

For the molecule `COC(=O)[C@H](c1ccccc1Cl)N1CCc2sccc2C1` [Clopidogrel], the “Antithrombotic Activity” value in [1] (3 mg/kg/day orally for 3 days) is recorded as 80% patency. In data set [2], this molecule had an APTT fold change of 1.03 fold and a PT fold change of 1.01 fold.
Consider `O=C(NC[C@H]1CN(c2ccc(N3CCOCC3=O)cc2)C(=O)O1)c1ccc(Cl)s1` [Rivaroxaban], for which the negative logarithm of the IC50 (pIC50) in data set [3] is 7.10.
Regarding `COc1ccc(NC(=O)c2ccc(C(=N)N(C)C)cc2)c(C(=O)Nc2ccc(Cl)cn2)c1` [betrixaban], the “Plasma Concentration Range of Betrixaban” value fell in the range of 7 to 10 ng/mL in data set [4] (Dosed Group 1), 13 to 21 ng/mL in data set [4] (Dosed Group 2), 26 to 38 ng/mL in data set [4] (Dosed Group 3) and 54 to 88 ng/mL in [4] (Dosed Group 4). Moreover, the “effect on anti-Xa activity” value in data set [5] (15 mg, compared with enoxaparin) is “less”; in data set [5] (40 mg, compared with enoxaparin), “similar”. Also, in data set [5] (40 mg, TKR patients, compared with enoxaparin), the “effect on the inhibition of thrombin generation” value is listed as “more pronounced”. Further, the “other coagulation parameters (i.e. aPTT, PT and INR)” value in data set [5] (TKR patients) is “did not appreciably affect”. In [6] (setting [18]), the “Antithrombotic Activity (arterial)” value was found to be 32% inhibition. Further, the “Antithrombotic Activity (venous)” value in [6] (setting [18]) came to 90% inhibition. Moreover, the “Platelet deposition at 140 minutes” value in [6] (Dose 3 (26-38 ng/ml), P<0.05) is recorded as “significant decrease compared to control”; in data set [6] (dose 4 (54-88 ng/ml), P value<0.01), “significant decrease compared to control”. Also, the “% Inhibition of Fibrin Formation” value is reported as −0.38% in [6] (Dosed Group 1), 37.50% in [6] (Dosed Group 2), 71.97% in data set [6] (Dosed Group 3) and 87.12% in data set [6] (Dosed Group 4). The “% Inhibition of Platelet Deposition” value in data set [6] (Dosed Group 1) worked out at 29.71%; in data set [6] (Dosed Group 2), 44.20%; in [6] (Dosed Group 3), 65.22%; in data set [6] (Dosed Group 4), 88.77%. In addition, the “suppressing both markers of thrombin generation, compared to fondaparinux (200 nM)” value in data set [7] (200 nM, human whole blood) is reported as “more potent”. In addition, the “TAT and F1.2 generation” value in data set [7] (human whole blood) was “significantly inhibited”. Besides, the “tissue factor initiated thrombin generation” value in [7] (human whole blood) is on record as “dose-dependent inhibition”. The “platelet mediated prothrombinase activity” value in data set [7] (whole blood prothrombinase assay) is “dose-dependently inhibited”. Moreover, the “Antithrombotic Activity” value is given as 90% patency in [1] (19.1 mg/kg IV) and 76% inhibition in data set [8]. In addition, the “VTE % (95% CI)” value in [9] (15 mg BID orally) is reported as 20 (12-32) %; in [9] (40 mg BID orally), 15 (8-27) %. In [9] (in vivo), the “preventing VTE after TKR” value was “effective”. The Template bleeding times result in [10] (any of the betrixaban treated animals) is recorded as “not perturbed”. The results for the “Anti fXa units” value in data set [10] (highest dose) and in data set [10] (three lower doses) were 0.31 Units/ml and “below the limit of quantitation”, respectively. The “inhibition of plasma thrombin generation (ex vivo)” value was determined as 72% in data set [10] (highest dose) and 13% in data set [10] (lowest dose). Moreover, the “concentration for 2× change of PT” value in [11] was found to be 1.6 µM; in [12], 1 µM; in data set [13], 0.4 µM; in data set [16], 8.9 µM. Besides, the “specificity against related proteases” value in [14] is given as “greater than 86,000 fold”. Moreover, in [15], the safety and tolerability result was “safe and well tolerated”.
For `CN(C)Cc1nccn1-c1ccc(NC(=O)c2cc(C(F)(F)F)nn2-c2ccc3onc(N)c3c2)c(F)c1` [Razaxaban], the pIC50 in data set [3] is 6.90.
For the molecule `COc1ccc(NC(=O)c2ccc(C(=N)N(C)C)cc2)c(C(=O)Nc2ccc(Cl)cn2)c1` [betrixaban maleate], in [17], the “crystallinity, thermal and hydrolytic stability” value is recorded as “excellent”.
In data set [3], Bivalirudin registered an IC50 of 2.4 µg/mL.
